Results: US20240116918A1, “SUBSTITUTED TRICYCLIC COMPOUND AS PRMT5 INHIBITOR AND USE THEREOF” (NANJING SANHOME PHARMACEUTICAL CO., LTD., priority 2019, published 2024)

Tests used:
NCI-H358 cells = test: In vitro cell activity, NCI-H358 cells, CCK-8; format: cell-based; settings: NCI-H358, 168 h, human non-small cell lung cancer cells, 7 days
Experimental: Test compounds: the compounds of the present invention prepared in the above example. Each compound was formulated into a 10 mM stock solution with DMSO, and finally diluted into 8 concentrations for detection, with the final concentrations being 33333.00 nM, 6666.60 nM, 1333.32 nM, 266.66 nM, 53.33 nM, 10.67 nM, 2.13 nM, and 0.43 nM for experiments in Z-138 cells.
2.1.3 NCI-H358 cell thawing: The cryovial for NCI-H358 cells was taken out from a liquid nitrogen tank and placed in a 37° C. water bath, and shaken gently for thawing as soon as possible. After thawing, the cryovial was taken out, and sterilized with an alcohol cotton ball, after which the cap was unscrewed. The cell fluid was drawn and injected into a centrifuge tube. 1 mL of 1640 medium containing 10% FBS was added, and mixed uniformly. The tube was placed in a centrifuge, and centrifuged at 1000 rpm for 5 min. Afterwards, the supernatant was discarded, and complete medium was added. The mixture was pipetted repeatedly until the cells were completely dispersed and resuspended. The mixture was inoculated in a petri dish at an appropriate concentration, and cultured in a CO2 incubator at 37° C., 5% CO2, and 95% humidified air.
2.2.3 NCI-H358 cell culture and passage: The cells grew to about 80-90%. The medium (1640 medium+10% FBS+1% penicillin-streptomycin+1 mM sodium pyruvate) was transferred to a 15 mL centrifuge tube, and centrifuged at 1000 rpm for 5 min. The supernatant was removed. The cells were resuspended in complete medium, and inoculated in a petri dish at the desired density. The dish was placed in a CO2 incubator at 37° C., 5% CO2, and 95% humid air. The culture medium was changed every 2-3 days or the passage was carried out, depending on the cell growth.
After passage, NCI-H358 cells were resuspended in complete medium at the corresponding density, 1000 cells/well, and inoculated in a 96-well culture plate. The wells at the outer circumference were filled with 200 μL PBS to prevent the culture conditions of the inside plate wells from being too different from each other due to the faster evaporation of medium at the edge. The leftmost column of the 60 inner wells were blank wells, which were not added with cells, but filled with equal volume of PBS. The remaining 54 wells were subjected to cell plating with a multichannel pipette, to each well was added 100 μL. […]
The first column of PBS was used as a blank control well, and 100 μL of CCK-8 was added synchronously thereto. […] The optimal detection time was determined according to the shade of color developed by CCK-8 (the optimal OD value for the DMSO group was about 1.0). […] The microplate reader software was opened, the detection parameters were adjusted, and the absorbance at 450 nm (OD value) was detected. […]

ex vivo heart = test: Ex vivo heart experiments, QT interval

Row | IC50 (NCI-H358 cells) [nM] | SMILES | effect on the QT interval (ex vivo heart)
1 | 73.2 | CC(=O)N1CCC(Nc2cc(C(=O)NC[C@H](O)CN3CCc4ccccc4C3)ncn2)CC1 [Compound A, (S)-6-((1-Acetylpiperidin-4-yl)amino)-N-(3-(3,4-dihydroisoquinolin-2(1H)-yl)-2-hydroxypropyl)pyrimidine-4-carboxamide] | 
2 | 15.3 | CC(=O)N1CCC(Nc2ccc3c(c2)C(=O)N(C[C@H](O)CN2CCc4ccccc4C2)CC32CC2)CC1 [Compound B, (R)-7′-((1-Acetylpiperidin-4-yl)amino)-2′-(3-(3,4-dihydroisoquinolin-2(1H)-yl)-2-hydroxypropyl)-2′,3′-dihydro-1′H-spiro[cyclopropane-1,4′-isoquinolin]-1′-one, reference compound] | significant prolongation of the QT interval
3 | 8.9 | CC(=O)N1CCC(Nc2cc3c(cn2)C2(CC2)CN(C[C@H](O)CN2CCc4ccccc4C2)C3=O)CC1 [Example 1, (R)-7′-((1-acetylpiperidin-4-yl)amino)-2′-(3-(3,4-dihydroisoquinolin-2(1H)-yl)-2-hydroxypropyl)-2′,3′-dihydro-1′H-spiro[cyclopropane-1,4′-[2,6]naphthyridin]-1′-one] | no effect on the QT interval

Row | SMILES | IC50 (NCI-H358 cells) [nM] | effect on the QT interval (ex vivo heart)
4 | CC(=O)N1CC2(CC(Nc3cc4c(cn3)C3(CC3)CN(C[C@H](O)CN3CCc5ccccc5C3)C4=O)C2)C1 [Example 2, (R)-7′-((2-acetyl-2-azaspiro[3.3]hept-6-yl)amino)-2′-(3-(3,4-dihydroisoquinolin-2(1H)-yl)-2-hydroxypropyl)-2′,3′-dihydro-1′H-spiro[cyclopropane-1,4′-[2,6]naphthyridin]-1-one] | 5.02 | no effect on the QT interval
